Assay [1] deals with T1, BChE (Homo sapiens, UniProt P06276).
T1 construct: Purified human plasma wild-type BChE was a gift from Dr. Oksana Lockridge; tissue gift from Dr. Oksana Lockridge (University of Nebraska Medical Center); host or cells: human plasma
As to the kind of experiment: Inhibition of second-order substrate hydrolysis by BChE (inhibition constants KI). The assay is classed as biochemical. As for the experimental part:
To further compare the binding sites of inhibitors with AChE and BChE, we employed an inhibitor competition assay. This assay is designed to detect any ternary complex formed when two inhibitors are added to AChE or BChE simultaneously. The assay is conducted with a substrate like acetylthiocholine whose second-order hydrolysis at low substrate concentrations is diffusion controlled and thus is inhibited by ligands that bind to either the A-site or the P-site (see Figure 7A below). Individual inhibition constants KI were obtained by plotting the ratios of the hydrolysis rate constant kE at various concentrations of one inhibitor (kE + I) to kE in the absence of inhibitor (kE [I] = 0) against inhibitor concentration. Inhibitor competition was then assessed by determining ratios of kE at a fixed concentration ([I1]) of inhibitor 1 and various concentrations ([I2]) of inhibitor 2 (kE + I2) to kE at the same [I1] in the absence of [I2] (kE [I2] = 0) and plotting these ratios against [I2]. These plots were analyzed with Equation (5) (described in the Materials and Methods Section 4.4) to obtain the relative affinity of I1 in its binary complex with enzyme E to I1 in a ternary complex with I2 and E (K12/K1). […].
For enzyme kinetics experiments, purified recombinant hAChE (~1500 units as determined by the supplier) was purchased from Sigma Aldrich (St. Louis, MO, USA). The AChE concentration was calculated using the assumption of 450 units/nmol (4.8 ∆A412/(min × nM)). Purified human plasma wild-type BChE was a gift from Dr. Oksana Lockridge (University of Nebraska Medical Center, Omaha, NE, USA). BChE concentration was calculated assuming 62.5 unit/nmol (0.94 ∆A412/(min × nM)). As defined previously, […] is the amount of BChE that gives 1.0 ∆A/min in the presence of 1.6 × 10^−4 M butyrylthiocholine in a 1.5 mL assay.
Inhibition constants for inhibitors of BChE were determined using a modification of a previously described method. Briefly, varying amounts of inhibitor (in 50 μL of 50% CH3CN(aq)) were added to 1.60 mL of buffer (0.09 M phosphate buffer, pH 8.0), 5,5′-dithio-bis (2-nitrobenzoic acid) (0.32 mM), and butyrylthiocholine substrate (5 μM) in a quartz cuvette of 1 cm path length, and the mixture was zeroed at 412 nm. The reaction was initiated by the addition of 50 μL of BChE (to 0.68 nM) in 0.1% aqueous gelatin. Assays were conducted at 23 °C. The absorbance (A), reflecting the cumulative hydrolysis of the substrate, was recorded every 5–20 s using an Ultraspec 2100 pro ultra violet (UV)-visible spectrophotometer (Fisher Scientific, Toronto, ON, Canada) equipped with Swift II application software. […]
In Equation (1), A412 is absorbance, [E]tot is the total enzyme concentration, kobs = kE[E]tot, and ΔA412 = A412(final) − A412(t = 0). […]

Assay [2] has as its target T2, hAChE (Homo sapiens, UniProt P22303). Put plainly: biochemical. The assay is classed as binding. As to conditions: for n (±SD), binding stoichiometry / ΔG (±SD), Gibbs free energy of binding / ΔH (±SD), binding heat: hAChE, ITC, 25 °C, pH 8.0.
Assay [3] concerns the target hBChE (Homo sapiens, UniProt P06276, N45Q/N483Q/N509Q/N514Q). Put plainly: biochemical. It is filed as binding. To be noted: for n (±SD), binding stoichiometry / ΔG (±SD), Gibbs free energy of binding / ΔH (±SD), binding heat: hBChE, ITC, 25 °C, pH 7.4.
The test system of assay [4] is hBChE. Put plainly: biochemical. It is filed as binding. To be noted: ITC KD, hAChE vs hBChE.
Assay [5] addresses T1, BChE. Also on record: method as in PMID 22901043. As to conditions: cited from earlier work.
Assay [6] relates to AChE. As to conditions: cited from earlier work.
Assay [7] deals with T1, BChE. As to conditions: in the presence of thioflavin T; cited from earlier work.
Assay [8] concerns hBChE. To be noted: specificity for BChE; cited from earlier work.
Assay [9] has as its target T1, BChE. It is filed as biochemical. To be noted: binding site competition ratio of each inhibitor (I1) in the presence of decamethonium (I2), >> 1 denotes competition at the same site.
Experimental: This assay is designed to detect any ternary complex formed when two inhibitors are added to AChE or BChE simultaneously [15, 23, 34, 41, 42, 43]. The assay is conducted with a substrate like acetylthiocholine whose second-order hydrolysis at low substrate concentrations is diffusion controlled and thus is inhibited by ligands that bind to either the A-site or the P-site [15] […] Inhibitor competition was then assessed by determining ratios of kE at a fixed concentration ([I1]) of inhibitor 1 and various concentrations ([I2]) of inhibitor 2 (kE + I2) to kE at the same [I1] in the absence of [I2] (kE [I2] = 0) and plotting these ratios against [I2]. These plots were analyzed with Equation (5) (described in the Materials and Methods Section 4.4) to obtain the relative affinity of I1 in its binary complex with enzyme E to I1 in a ternary complex with I2 and E (K12/K1).
Determining rates of substrate hydrolysis in the presence of two inhibitors provides information that indicates whether these inhibitors are interacting with the same or different enzyme binding sites [15]. […]
In this equation, K1, K2, and K12 are the equilibrium dissociation constants for I1 with E, I2 with E, and I1 with the E I2 complex, respectively. Individual inhibition constants (e.g., K2) could be determined from Equation (5) with [I1] fixed at 0. […]
The target of assay [10] is T2, hAChE. To be noted: read-out: AChE KI, recalculated from data obtained in ref 23; cited from earlier work.
Assay [11] deals with BChE. To be noted: cited from earlier work.
The subject of assay [12] is AChE. As to conditions: cited from earlier work. The source holds these as a separate data set.

The values below come from publication PMC6149722, “Comparison of the Binding of Reversible Inhibitors to Human Butyrylcholinesterase and Acetylcholinesterase: A Crystallographic, Kinetic and Calorimetric Study” (Molecules : A Journal of Synthetic Chemistry and Natural …, 2017).

SMILES strings stand for the structures. Where a name gives a salt, the structure may show the parent alone. Read-outs that look alike come from different tables or passages of the source.

Sequence of hBChE (Homo sapiens, UniProt P06276, N45Q/N483Q/N509Q/N514Q) (P06276 29-557 N45Q/N483Q/N509Q/N514Q): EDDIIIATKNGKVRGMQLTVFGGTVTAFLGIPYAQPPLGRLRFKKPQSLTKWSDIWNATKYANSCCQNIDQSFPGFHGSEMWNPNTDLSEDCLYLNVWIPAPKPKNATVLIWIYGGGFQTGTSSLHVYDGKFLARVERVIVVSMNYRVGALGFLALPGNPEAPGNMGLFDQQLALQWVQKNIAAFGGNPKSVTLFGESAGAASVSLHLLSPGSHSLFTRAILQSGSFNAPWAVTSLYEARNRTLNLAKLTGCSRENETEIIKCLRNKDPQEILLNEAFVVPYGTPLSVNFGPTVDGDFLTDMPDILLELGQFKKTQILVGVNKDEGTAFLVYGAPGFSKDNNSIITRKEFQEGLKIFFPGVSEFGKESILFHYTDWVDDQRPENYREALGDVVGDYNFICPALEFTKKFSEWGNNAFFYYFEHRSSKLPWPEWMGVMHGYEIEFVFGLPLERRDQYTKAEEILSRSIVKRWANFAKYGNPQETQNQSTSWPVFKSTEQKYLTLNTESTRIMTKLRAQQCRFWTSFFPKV
T1 sequence (P06276 29-602): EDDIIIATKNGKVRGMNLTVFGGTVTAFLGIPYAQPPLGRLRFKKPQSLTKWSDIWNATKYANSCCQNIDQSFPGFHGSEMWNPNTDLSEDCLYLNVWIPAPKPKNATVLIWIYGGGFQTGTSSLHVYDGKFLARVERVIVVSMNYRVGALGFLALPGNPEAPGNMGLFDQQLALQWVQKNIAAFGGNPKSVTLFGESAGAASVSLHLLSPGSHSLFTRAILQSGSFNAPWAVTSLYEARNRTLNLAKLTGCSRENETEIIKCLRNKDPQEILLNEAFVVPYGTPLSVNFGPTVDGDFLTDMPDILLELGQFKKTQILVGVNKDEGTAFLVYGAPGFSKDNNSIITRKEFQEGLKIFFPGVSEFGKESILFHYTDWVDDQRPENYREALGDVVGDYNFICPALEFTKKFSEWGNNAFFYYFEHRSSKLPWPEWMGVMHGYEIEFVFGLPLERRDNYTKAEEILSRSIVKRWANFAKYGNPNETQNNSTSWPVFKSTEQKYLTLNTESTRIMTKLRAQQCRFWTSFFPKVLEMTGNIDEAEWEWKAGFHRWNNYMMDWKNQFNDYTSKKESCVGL
T2 sequence (P22303 32-574): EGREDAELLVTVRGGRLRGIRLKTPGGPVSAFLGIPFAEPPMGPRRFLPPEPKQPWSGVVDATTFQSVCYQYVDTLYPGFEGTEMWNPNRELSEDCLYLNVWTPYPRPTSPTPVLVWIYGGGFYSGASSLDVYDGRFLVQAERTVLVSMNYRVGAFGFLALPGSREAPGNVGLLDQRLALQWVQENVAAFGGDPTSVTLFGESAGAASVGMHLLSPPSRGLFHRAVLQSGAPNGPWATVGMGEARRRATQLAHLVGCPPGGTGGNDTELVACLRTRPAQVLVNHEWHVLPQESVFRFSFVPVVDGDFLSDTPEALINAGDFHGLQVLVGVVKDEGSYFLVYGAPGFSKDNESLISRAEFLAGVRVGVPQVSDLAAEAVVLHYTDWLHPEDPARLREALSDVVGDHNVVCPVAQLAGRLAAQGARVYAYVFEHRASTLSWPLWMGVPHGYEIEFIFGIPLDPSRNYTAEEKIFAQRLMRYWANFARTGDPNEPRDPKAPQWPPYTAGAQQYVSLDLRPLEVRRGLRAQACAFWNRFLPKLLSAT

The Ki is the dissociation constant of the complex between target and ligand, obtained from inhibition or displacement. Turning to `C[N+](C)(C)CCCCCCCCCC[N+](C)(C)C` [Decamethonium, decamethonium bromide], in [1], the Ki was 4.5 ± 0.2 µM.
The Kd is the concentration at which binding is half-saturated. Higher therefore signals lower affinity. Regarding `CC[N+](C)(C)c1cccc(O)c1` [Edrophonium, edrophonium chloride], the “n (±SD), binding stoichiometry” value in assay [2] is listed as 0.8 ± 0.3; in assay [2] (listed as edrophonium) it was ~ 1; in assay [3], 0.9 ± 0.1; in assay [3] (listed as edrophonium) it was ~ 1. The “ΔG (±SD), Gibbs free energy of binding” value in assay [2] is -8.03 ± 0.19 kcal/mol; in assay [3] it was -6.24 ± 0.072 kcal/mol. In addition, the results for the “ΔH (±SD), binding heat” value in assay [2] and in assay [3] were -6.31 ± 1.89 kcal/mol and -3.01 ± 0.406 kcal/mol, respectively. Moreover, binding in [3] was characterised by a dissociation constant (Kd) of 27.2 ± 2.4 µM. In assay [4], the “difference in KD values between AChE and BChE” value is listed as approximately 20 fold. The Ki in assay [5] (BChE, updated from data in ref 23) was 49 ± 3 µM; in [5] (read-out: BChE KI, hBChE, recalculated from data obtained in ref 23), 49 ± 3 µM. In assay [6] (binding site competition ratio in the presence of thioflavin T, recalculated from data obtained in ref 23), the “AChE K12/K1” value is reported as 2.9 ± 0.2. Besides, in [6] (in the presence of thioflavin T), the “AChE K12/K1 competition class” value is on record as “NC (A K12/K1 ratio of ~1 indicates no competition at binding sites (NC))”. The “BChE K12/K1 competition class” value in assay [7] was “PC (intermediate ratios indicate partial competition (PC))”.
As for `CCN(CC)C(C)CN1c2ccccc2Sc2ccccc21` (centres unmarked) [Ethopropazine, ethopropazine hydrochloride], in assay [3], the equilibrium dissociation constant (Kd) came to 1.1 ± 0.1 µM; the “n (±SD), binding stoichiometry” value came to 1.0 ± 0.1; the “ΔG (±SD), Gibbs free energy of binding” value is -8.15 ± 0.048 kcal/mol; the “ΔH (±SD), binding heat” value was -10.4 ± 1.53 kcal/mol. Besides, the “n (±SD), binding stoichiometry” value in [3] (listed as ethopropazine) is reported as ~ 1. For the same compound, the “difference in KD values between AChE and BChE” value in assay [4] is approximately 20 fold. Further, the “difference in Ki between hAChE and hBChE” value in assay [8] was 9000 fold.
Consider `Cc1ccc2c(c1)sc(-c1ccc(N(C)C)cc1)[n+]2C` [Thioflavin-T, ThT chloride], for which the inhibitory constant (Ki) in assay [1] (BChE 0.68 nM, butyrylthiocholine 5 µM, second-order dependence on inhibitor concentration, read-out: KI (fitted with Equation (4))) is 1.61 ± 0.11 µM; in [10], 3.9 ± 0.4 µM. Further, the “KII (fitted with Equation (4))” value in assay [1] (BChE 0.68 nM, butyrylthiocholine 5 µM, second-order term) is recorded as 5.84 ± 0.16 µM^2. For the same compound, in assay [1] (BChE, two molecules of inhibitor, maximum reached when KI1 = KI2), the “KI12/KI1 (maximum for the affinity in the binary complex relative to that in the ternary complex)” value came out at 0.56 ± 0.04. The K12/K1 in [9] is given as more than 200. Further, the Kd is 17.7 µM in assay [2] and 2.6 ± 0.5 µM in [3]. The “n (±SD), binding stoichiometry” value in assay [2] is 1; in assay [2] (listed as ThT) it was ~ 1; in [3] it was 2.2 ± 0.1. Moreover, the results for the “ΔG (±SD), Gibbs free energy of binding” value in assay [2] and in assay [3] were -6.5 kcal/mol and -7.65 ± 0.14 kcal/mol, respectively. Further, the “ΔH (±SD), binding heat” value in assay [2] is -5.66 kcal/mol; in assay [3] it was -2.72 ± 0.14 kcal/mol. The “difference in KD values between AChE and BChE” value in [4] was “about 7 fold”.
As usually defined, the IC50 is the concentration at which inhibition is half-maximal. Take `NCCC1=CC2Cc3nc4cc(Cl)ccc4c(N)c3C(C1)C2` (centres unmarked) [huprine 19]: the half-maximal inhibitory concentration (IC50) in assay [11] is 0.9 µM.
For `Nc1c2c(nc3cc(Cl)ccc13)C[C@H]1C=C(CCO)C[C@@H]2C1` [huprine W], the half-maximal inhibitory concentration (IC50) in assay [11] is 1.2 µM; in assay [12] it was 0.0011 µM.
